Laboratory results reported in patent US20260166128A1, “HUMAN AMYLIN ANALOG, AND DERIVATIVE THEREOF AND USE THEREOF” (priority 2022, published 2026).
Numbered stars: 1 amine (or outer) side, 2 acyl side, 3 side chain; on linkers, the order of the positions; unused ones are H or OH. Bridge positions count the residues as written; N and C are the ends. Square brackets hold non-standard residues; d marks the D form. Side chains are listed from the residue outwards. Peptide text beside a SMILES is read from it. * marks the point of attachment. C20 diacid = O=C(O)CCCCCCCCCCCCCCCCCCC(=O)*; C18 diacid = O=C(O)CCCCCCCCCCCCCCCCC(=O)*; γGlu = O=C(O)[C@H](CCC(=O)[*:2])N[*:1]; Hyp = O=C(O)[C@@H]1C[C@@H](O)CN1; AEEA = NCCOCCOCC(=O)O

Assays:
[1] = format: physicochemical
Protocol: The penicillin bottle after covering was placed in a stability test box at 40° C. Before testing, a sample was centrifuged at 10,000 rpm and 4° C. for 3 minutes, and a supernatant was taken and added into a liquid-phase sample injection bottle. The sample was detected by the liquid phase method in Example 3.

[2] = molecular target: T1, human amylin receptor (Homo sapiens, UniProt O60896+P30988); test: Luciferase assay of amylin derivatives in amylin receptor/CRE-luc CHO cell line; format: cell-based; conditions: CHO-K1/Ga15/AMY3 CRE-luc cells, 24 hours incubation, F12 medium containing 10% FBS; read-out: EC50
T1 construct: host or cells: CHO-K1/Ga15/AMY3 cells, further stably transfected with a CRE-luciferase plasmid
T1 sequence (P30988 25-474): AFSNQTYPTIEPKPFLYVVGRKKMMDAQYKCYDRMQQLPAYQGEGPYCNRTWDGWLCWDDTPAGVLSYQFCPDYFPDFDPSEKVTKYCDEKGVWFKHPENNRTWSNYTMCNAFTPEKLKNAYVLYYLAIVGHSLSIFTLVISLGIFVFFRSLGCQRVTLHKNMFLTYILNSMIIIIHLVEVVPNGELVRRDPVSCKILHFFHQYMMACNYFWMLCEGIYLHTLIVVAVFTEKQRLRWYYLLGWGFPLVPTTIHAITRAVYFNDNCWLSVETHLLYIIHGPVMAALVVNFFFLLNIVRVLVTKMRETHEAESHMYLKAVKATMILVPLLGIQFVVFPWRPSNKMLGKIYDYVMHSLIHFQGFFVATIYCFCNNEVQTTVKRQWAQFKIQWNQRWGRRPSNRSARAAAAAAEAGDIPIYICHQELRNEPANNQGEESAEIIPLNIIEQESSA
T1 sequence (O60896 24-148 partner): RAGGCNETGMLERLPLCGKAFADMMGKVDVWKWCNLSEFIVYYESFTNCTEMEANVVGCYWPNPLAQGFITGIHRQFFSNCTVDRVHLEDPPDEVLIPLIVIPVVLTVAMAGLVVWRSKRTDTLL
Protocol: The experiment was intended to detect the activity or efficacy of the amylin derivatives on a human amylin receptor in vitro by luciferase assay.
50 μL of growth medium (F12 medium containing 10% FBS) was added into each well of a white 96-well plate, and the stably transfected amylin/CRE-lue CHO cells were inoculated into the white 96-well plate at a density of about 20,000 cells/well for activity determination.

[3] = Freeze-thaw stability of derivatives (freeze-thaw yield by liquid chromatography); format: physicochemical
How it was run: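 Lyophilised peptide derivative dissolved at 0.2 mg/ml in 20 mM phosphate buffer, pH 7.0, frozen overnight at −20° C, then thawed at room temperature. Peptide concentration before and after freeze-thaw measured by reversed-phase HPLC on centrifuged supernatant; yield = post-thaw/pre-thaw concentration.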

[4] = Weight loss efficacy of derivatives in SD rats (Example 5); format: in vivo, SD (Sprague Dawley) rats; conditions: experimental group B, subcutaneous, 30 nmol/kg
From the text: SD (Sprague Dawley) rats weighing 200 g to 250 g were selected for this experimental study. Before the experiment, the rats arrived for at least 10 days to 14 days to adapt to the experimental environment. During this period, the rats were fed for two weeks in a reversed light/dark stage (meaning that the light was turned off during the day and turned on during the night) after arrival, and were fed separately in the first week of arrival to ensure accurate data and high test sensitivity, and the rats were free to obtain food and water during the whole adaptation period and experimental period. There were an experimental group [NT]5 and A6, and an experimental group B: B1, B2, B3, B4 and B5, with 5 to 8 rats in each treatment group of the derivative, and the rats in each group were subcutaneously administered with a derivative or a solvent by a dosage of 30 nmol/kg. The administration time of each group was recorded. After administration, the rats were put back into their cages in which the rats could get food and water. Food consumption and weight changes of the rats were recorded every 24 hours by online recording or manual recording. Weight and food intake changes of the SD rats in each group were as shown in FIG. 2A to FIG. 2D, Table 9 and Table 10.

EC50 [2] [nM] | Dissolution property ([3]; appearance after dissolution at 0.2 mg/ml in 20 mM phosphate buffer solution (PB) (pH 7.0)) | Freeze storage property ([3]; appearance after overnight storage at −20° C. and thawing to room temperature, 0.2 mg/ml in 20 mM PB (pH 7.0)) | Freeze storage yield ([3]; concentration of polypeptide after freezing and thawing / concentration before, by liquid chromatography, −20° C. overnight) [%] | Structure (SMILES) | thermal stability [1] | Weight change rate at 48th hour [4]
0.038 | – | – | – | CC[C@H](C)[C@H](NC(=O)[C@@H]1CCCN1C(=O)CNC(=O)[C@H](CC(C)C)NC(=O)[C@H](CC(N)=O)NC(=O)[C@H](CC(N)=O)NC(=O)[C@H](CO)NC(=O)[C@H](CO)NC(=O)[C@H](Cc1c[nH]cn1)NC(=O)[C@H](CCCNC(=N)N)NC(=O)[C@H](CC(C)C)NC(=O)[C@H](Cc1ccccc1)NC(=O)[C@H](CC(=O)O)NC(=O)[C@H](C)NC(=O)[C@H](CC(C)C)NC(=O)[C@H](CCCNC(=N)N)NC(=O)[C@H](CCC(N)=O)NC(=O)[C@@H](NC(=O)[C@H](C)NC(=O)[C@@H]1CSSC[C@H](NC(=O)[C@@H](N)CCCCNC(=O)CC[C@H](NC(=O)CCCCCCCCCCCCCCCCCCC(=O)O)C(=O)O)C(=O)N[C@@H](CC(N)=O)C(=O)N[C@@H]([C@@H](C)O)C(=O)N[C@@H](C)C(=O)N[C@@H]([C@@H](C)O)C(=O)N1)[C@@H](C)O)C(=O)N[C@@H](CC(C)C)C(=O)N1CCC[C@H]1C(=O)N1CCC[C@H]1C(=O)N[C@H](C(=O)N[C@@H](CC(N)=O)C(=O)N[C@H](C(=O)NCC(=O)N[C@@H](CO)C(=O)N[C@@H](CC(N)=O)C(=O)N[C@H](C(=O)N1C[C@H](O)C[C@H]1C(N)=O)[C@@H](C)O)C(C)C)[C@@H](C)O [PD070] (H-K([γGlu-C20 diacid])CNTATCATQRLADFLRHSSNNLGPILPPTNVGSNT[Hyp]-NH2; disulfide 2-7) | extremely low decrease percentage of protein concentration | –
0.028 | Clear | Clear | 99.24 | CC[C@H](C)[C@H](NC(=O)[C@@H]1CCCN1C(=O)CNC(=O)[C@H](CC(C)C)NC(=O)[C@H](CC(N)=O)NC(=O)[C@H](CC(N)=O)NC(=O)[C@H](CO)NC(=O)[C@H](CO)NC(=O)[C@H](Cc1c[nH]cn1)NC(=O)[C@H](CCCNC(=N)N)NC(=O)[C@H](CC(C)C)NC(=O)[C@H](Cc1ccccc1)NC(=O)[C@H](CC(=O)O)NC(=O)[C@H](C)NC(=O)[C@H](CC(C)C)NC(=O)[C@H](CCCNC(=N)N)NC(=O)[C@H](CCC(N)=O)NC(=O)[C@@H](NC(=O)[C@H](C)NC(=O)[C@@H]1CSSC[C@H](NC(=O)[C@H](CCCCN)NC(=O)COCCOCCNC(=O)COCCOCCNC(=O)CC[C@H](NC(=O)CCCCCCCCCCCCCCCCC(=O)O)C(=O)O)C(=O)N[C@@H](CC(N)=O)C(=O)N[C@@H]([C@@H](C)O)C(=O)N[C@@H](C)C(=O)N[C@@H]([C@@H](C)O)C(=O)N1)[C@@H](C)O)C(=O)N[C@@H](CC(C)C)C(=O)N1CCC[C@H]1C(=O)N1CCC[C@H]1C(=O)N[C@H](C(=O)N[C@@H](CC(N)=O)C(=O)N[C@H](C(=O)NCC(=O)N[C@@H](CO)C(=O)N[C@@H](CC(N)=O)C(=O)N[C@H](C(=O)N1C[C@H](O)C[C@H]1C(N)=O)[C@@H](C)O)C(C)C)[C@@H](C)O [PD126] ({C18 diacid-γGlu-AEEA-AEEA}-KCNTATCATQRLADFLRHSSNNLGPILPPTNVGSNT[Hyp]-NH2; disulfide 2-7 (inferred)) | – | –
0.022 | – | – | – | CC[C@H](C)[C@H](NC(=O)[C@@H]1CCCN1C(=O)[C@H](CCCNC(=N)N)NC(=O)[C@H](CC(C)C)NC(=O)[C@H](CC(N)=O)NC(=O)[C@H](CC(N)=O)NC(=O)[C@H](CO)NC(=O)[C@H](CO)NC(=O)[C@H](Cc1c[nH]cn1)NC(=O)[C@H](CCCNC(=N)N)NC(=O)[C@H](CC(C)C)NC(=O)[C@H](Cc1ccccc1)NC(=O)[C@H](CC(=O)O)NC(=O)[C@H](C)NC(=O)[C@H](CC(C)C)NC(=O)[C@H](CCCNC(=N)N)NC(=O)[C@H](CCC(N)=O)NC(=O)[C@@H](NC(=O)[C@H](C)NC(=O)[C@@H]1CSSC[C@H](NC(=O)[C@H](CCCCN)NC(=O)CC[C@H](NC(=O)CCCCCCCCCCCCCCCCCCC(=O)O)C(=O)O)C(=O)N[C@@H](CC(N)=O)C(=O)N[C@@H]([C@@H](C)O)C(=O)N[C@@H](C)C(=O)N[C@@H]([C@@H](C)O)C(=O)N1)[C@@H](C)O)C(=O)N[C@@H](CC(C)C)C(=O)N1CCC[C@H]1C(=O)N1CCC[C@H]1C(=O)N[C@H](C(=O)N[C@@H](CC(N)=O)C(=O)N[C@H](C(=O)NCC(=O)N[C@@H](CO)C(=O)N[C@@H](CC(N)=O)C(=O)N[C@H](C(=O)N1C[C@H](O)C[C@H]1C(N)=O)[C@@H](C)O)C(C)C)[C@@H](C)O [PD158] ({C20 diacid-γGlu}-KCNTATCATQRLADFLRHSSNNLRPILPPTNVGSNT[Hyp]-NH2; disulfide 2-7 (inferred)) | – | −8.37
0.035 | – | – | – | CC[C@H](C)[C@H](NC(=O)[C@@H]1CCCN1C(=O)[C@H](CCCCN)NC(=O)[C@H](CC(C)C)NC(=O)[C@H](CC(N)=O)NC(=O)[C@H](CC(N)=O)NC(=O)[C@H](CO)NC(=O)[C@H](CO)NC(=O)[C@H](Cc1c[nH]cn1)NC(=O)[C@H](CCCNC(=N)N)NC(=O)[C@H](CC(C)C)NC(=O)[C@H](Cc1ccccc1)NC(=O)[C@H](CC(=O)O)NC(=O)[C@H](C)NC(=O)[C@H](CC(C)C)NC(=O)[C@H](CCCNC(=N)N)NC(=O)[C@H](CCC(N)=O)NC(=O)[C@@H](NC(=O)[C@H](C)NC(=O)[C@@H]1CSSC[C@H](NC(=O)[C@H](CCCCN)NC(=O)CC[C@H](NC(=O)CCCCCCCCCCCCCCCCCCC(=O)O)C(=O)O)C(=O)N[C@@H](CC(N)=O)C(=O)N[C@@H]([C@@H](C)O)C(=O)N[C@@H](C)C(=O)N[C@@H]([C@@H](C)O)C(=O)N1)[C@@H](C)O)C(=O)N[C@@H](CC(C)C)C(=O)N1CCC[C@H]1C(=O)N1CCC[C@H]1C(=O)N[C@H](C(=O)N[C@@H](CC(N)=O)C(=O)N[C@H](C(=O)NCC(=O)N[C@@H](CO)C(=O)N[C@@H](CC(N)=O)C(=O)N[C@H](C(=O)N1CCC[C@H]1C(N)=O)[C@@H](C)O)C(C)C)[C@@H](C)O [PD160] ({C20 diacid-γGlu}-KCNTATCATQRLADFLRHSSNNLKPILPPTNVGSNTP-NH2; disulfide 2-7 (inferred)) | – | −7.87
0.026 | – | – | – | CC[C@H](C)[C@H](NC(=O)[C@@H]1CCCN1C(=O)[C@H](CCCNC(=N)N)NC(=O)[C@H](CC(C)C)NC(=O)[C@H](CC(N)=O)NC(=O)[C@H](CC(N)=O)NC(=O)[C@H](CO)NC(=O)[C@H](CO)NC(=O)[C@H](Cc1c[nH]cn1)NC(=O)[C@H](CCCNC(=N)N)NC(=O)[C@H](CC(C)C)NC(=O)[C@H](Cc1ccccc1)NC(=O)[C@H](CC(=O)O)NC(=O)[C@H](C)NC(=O)[C@H](CC(C)C)NC(=O)[C@H](CCCNC(=N)N)NC(=O)[C@H](CCC(N)=O)NC(=O)[C@@H](NC(=O)[C@H](C)NC(=O)[C@@H]1CSSC[C@H](NC(=O)[C@H](CCCCN)NC(=O)CC[C@H](NC(=O)CCCCCCCCCCCCCCCCCCC(=O)O)C(=O)O)C(=O)N[C@@H](CC(N)=O)C(=O)N[C@@H]([C@@H](C)O)C(=O)N[C@@H](C)C(=O)N[C@@H]([C@@H](C)O)C(=O)N1)[C@@H](C)O)C(=O)N[C@@H](CC(C)C)C(=O)N1CCC[C@H]1C(=O)N1CCC[C@H]1C(=O)N[C@H](C(=O)N[C@@H](CC(N)=O)C(=O)N[C@H](C(=O)NCC(=O)N[C@@H](CO)C(=O)N[C@@H](CC(N)=O)C(=O)N[C@H](C(=O)N1CCC[C@H]1C(N)=O)[C@@H](C)O)C(C)C)[C@@H](C)O [PD161] ({C20 diacid-γGlu}-KCNTATCATQRLADFLRHSSNNLRPILPPTNVGSNTP-NH2; disulfide 2-7 (inferred)) | – | −7.81
